# Source: a melting point compilation (Tetko et al.; mined from patent text by program, amines drawn as free bases though some values may be those of a salt)
row,Compound,melting point [°C]
1,CS(=O)(=O)c1ccc(-n2nc(C(F)(F)F)cc2-c2ccc(-c3cscn3)c(Cl)c2)cc1,128 to 130
2,O=C1O[C@@H](Cn2ccnn2)CN1c1ccc(-c2ccc(C(O)C3CC3)nc2)c(F)c1 (some centres undefined),160 to 163
3,Cc1ccc(C(=S)c2ccc3n2CCCC3C#N)cc1 (centres undefined),118 to 119
4,CCC(=Cc1ccc(C(=O)O)cc1Cl)[N+](=O)[O-],179 to 180
5,CCCN1CCCC2(Cc3ccccc3NC2=O)C1=O (centres undefined),151 to 154
6,Nc1nc(O)c2c(n1)NCC(CCCCCC(=O)N[C@@H](CCC(=O)O)C(=O)O)C2 (some centres undefined),144
7,CCOC(=O)c1cn(OC)c2nc3cc(F)c(F)cc3cc2c1=O,266 to 268
8,CC(=O)c1ccc(-c2cccc(C(F)(F)F)c2)o1,105 to 109
9,CCc1nc(C)cn1C(=O)c1c(Cl)cccc1Cl,112 to 114
10,CCOC(=O)c1cn(C2CC2)c2nc(N3C[C@@H](CN)[C@@H](Cl)C3)c(F)cc2c1=O (relative stereo),163 to 167
11,CS(=O)CC(=O)c1ccc(F)cc1 (centres undefined),94.5 to 96
12,CCOC1OC(CO)C(COc2c(C(C)(C)C)cc(SC(C)(C)Sc3cc(C(C)(C)C)c(O)c(C(C)(C)C)c3)cc2C(C)(C)C)O1 (centres undefined),60 to 62
13,CC1CCN(C2=Nc3cc(Br)ccc3N3CCc4cccc2c43)CC1,177 to 179
14,N#CC=C1OC(=O)c2ccccc21,178 to 180
15,Cc1cc(C)cc(S(=O)(=O)c2cccc(F)c2C#N)c1,167 to 168
16,OC(CCc1cccnc1)CSc1ccc(C2CCCCC2)cc1 (centres undefined),49
17,COC(=O)C(C)(C)OCc1oc(-c2ccc(Cl)cc2)nc1C,88 to 90
18,COc1ccc(C2=C(NC(=O)Nc3c(C)cccc3C(C)C)CN(C)c3ccc(Cl)cc32)cc1OC,200 to 201
19,Nc1ncc(Br)cc1C(=O)O,272
20,CC12CC(=O)C3C(CCC4CC(=O)CCC43C)C1CCC2C(=O)CBr (centres undefined),170
21,COc1ccccc1Sc1ccc(C=O)c(Cl)c1Cl,137 to 139
22,CC(C)Cn1nc(-c2ccc(F)cc2F)cc(CN2C(=O)c3ccccc3C2=O)c1=O,152 to 156

row,Compound,melting point [°C]
1,CCOC(=O)CCCCCC(=O)NCc1cccc2c1C(=O)N(C1CCC(=O)NC1=O)C2=O (centres undefined),82 to 84
2,CC(=O)N1CCc2c(S(=O)(=O)Cl)ccc(Cl)c2C1,105 to 115
3,C[C@H](NC(=O)OC(C)(C)C)C(=O)NC1N=C(c2ccccn2)c2ccccc2N(C)C1=O (some centres undefined),228 to 229
4,COC(=O)CCCCc1cc2nc(Cl)ccc2n1S(=O)(=O)c1cc(C)cc(C)c1,126
5,O=C(OCC1CC1)c1ncn2c1[C@@H]1CCCN1C(=O)c1c(I)cccc1-2,164 to 165
6,CCC(CC)Nc1c([N+](=O)[O-])cc(C)c(COC(C)=O)c1[N+](=O)[O-],47 to 49
7,CCCC(=O)NCCC1CCc2c(OC)ccc3ccc(OC)c1c23 (centres undefined),99
8,Cc1ccc(-c2c(F)c(F)c3c(=O)c(C(=O)O)cn(C4CC4)c3c2F)c(C)n1,264 to 266
9,O=C(CN1C(=O)C(Cl)=C(Cl)C1=O)Nc1ccc(Cl)cc1,212 to 214
10,CN1Cc2cccc3[nH]cc(c23)C1,185 to 186
11,CCC(CO)Nc1ccc(-c2cccc(C(F)(F)F)c2)nn1 (centres undefined),84 to 87
12,CN(CCSc1ccc2ncc([N+](=O)[O-])n2n1)c1ccnc(CO)c1Cl,189 to 191
13,ClCCCOc1ccccc1Nc1nc(Cl)nc2c1ncn2C1CCCC1,110 to 112
14,CCOC(=O)[C@H]1O[C@@H]1C(=O)N[C@H](COCc1ccsc1)CC(C)C,61 to 62.5
15,CSC(=S)N1CCN(Cc2ccccc2N)CC1,110 to 114
16,COC(=O)c1c(N)ncn1C1c2ccccc2CC1(C)C (centres undefined),100 to 105
17,Cc1nccn1-c1nn(Nc2cnccn2)nc1-c1cccc(C#N)c1,276
18,COC(=O)c1ccc(C(=O)C=C(c2cc(Cl)cc(Cl)c2)C(F)(F)F)cc1,65.5 to 67.5
19,COC(=O)C1(S(=O)(=O)N2CC=C(c3ccc(Br)c(C)c3)CC2)CCOCC1,128 to 130
20,Cc1c(Cl)nc(-c2ccc([N+](=O)[O-])o2)nc1Cl,174 to 175
21,CN1CCN(S(=O)(=O)c2ccc([N+](=O)[O-])cc2[N+](=O)[O-])CC1,164 to 165
22,CC(NCCCO)c1ccc(C2CCC(N(C)C(=O)c3ccc(Cl)cc3)CC2)cc1 (centres undefined),118 to 120

row,Compound,melting point [°C]
1,C=CC(=O)NCc1ccc(CCCl)cc1,145 to 147
2,CC(C)OC(=O)N1CCC(c2nc3cc(-c4ccc(C(F)(F)F)cc4)ccc3o2)CC1,123 to 126
3,CN(C(=O)CCS)c1nnc(-c2cccnc2)s1,149 to 151
4,CC(=O)NCC1CCN(CC2COc3ccccc3O2)CC1 (centres undefined),138
5,Cc1cc2c(c(C(C)(C)C)c1)OC(=O)C2Cl (centres undefined),81 to 86
6,CCCCc1c(-c2ccncc2)[nH]c(-c2ccncc2)c1C(C)=O,93 to 95
7,Clc1ccc2c(-n3cc(Cl)cn3)ccnc2c1,110 to 114
8,Cc1cccc(COCCCC(=O)O)c1,53 to 54
9,O=C(NC1CCC(c2cc(Nc3cccc(C(F)(F)F)c3)n[nH]2)C1)C1CCCCC1 (centres undefined),163
10,O=C(O)Cc1cc(Cl)c2c(c1)CCC(c1ccccc1)N2 (centres undefined),126 to 127
11,CC(=O)c1cc(Cl)c(N)c(C#N)c1F,180 to 182
12,N#Cc1ccc(N2C(=O)N(CCCC(=O)O)C3(CCOCC3)C2=O)cc1C(F)(F)F,151 to 152
13,CCOC(=O)N1CC(C)C2=NNC(=O)CC2C1 (centres undefined),101 to 103
14,CCOC(=O)c1ncn2c1CN=C(c1ccccc1F)c1cc(Cl)ccc1-2,195 to 196
15,N#Cc1ccc(S(F)(F)(F)(F)F)cc1[N+](=O)[O-],57 to 59
16,CCOC(=O)C(=NOC)C1=CSc2ccccc2O1,78 to 80
17,COc1cc(-c2nc3sccn3c2-c2ccnc(N[C@@H]3CCCN(S(=O)(=O)c4ccc(Cl)cc4)C3)n2)ccc1F,142 to 143
18,CN(C)c1ncc(-c2cccc(-n3cnc4cc(-c5ccco5)ccc43)c2)cn1,170 to 172
19,CC(C)(O)COc1c(-c2ccc(S(C)(=O)=O)cc2)cnn(-c2ccc(Cl)c(Cl)c2)c1=O,108 to 110
20,O=c1[nH]c2cc(Cl)ccc2n1C1CCN(CCCNc2ccccc2[N+](=O)[O-])CC1,220
21,O=C(NCCO)Nc1ccccc1,120 to 122

# Further lines, results first:
row,melting point [°C],Compound
1,204,CCCCOc1ccc(S(=O)(=O)C2(C(=O)O)CCN(CCOc3ccccc3)CC2)cc1
2,131 to 134,Cn1nc(CS(C)(=O)=O)nc1NCCCOc1ccc(CN2CCCCC2)cc1
3,209 to 211,Nc1cccc(-n2c(=O)c(CCC(O)c3ccncc3)cc3cccnc32)c1 (centres undefined)
4,109 to 110,CC(C)COC(=O)C1(c2onc(-c3ccc(O)cc3)c2-c2ccccc2)CC1
5,135 to 137,CC(C)(C)c1ccc(N(Cc2cccc3ccccc23)c2ccccc2)cc1
6,90 to 125,O=C(O)CCC(CC=Cc1ccccc1Cl)(C(=O)C=Cc1ccc(Cl)cc1)c1ccccc1 (centres undefined)
7,228 to 230,CCCc1nc2c(N)nc3cc(OCc4cccc(N)c4)ccc3c2n1CC(C)C
8,164 to 166,O=C1NCC1NC(=O)C(C(=O)OCc1ccccc1)c1ccccc1 (centres undefined)
9,136 to 137,CCCCc1ccc(C(=O)O)c2ccccc12
10,94 to 95,OCCCCCCc1ccc(OCc2coc(/C=C/c3ccccc3)n2)cc1
11,209 to 211,CC(=O)N1C(=O)N(COCc2ccccc2)C(=O)C12c1ccccc1NC(=O)N2C (centres undefined)
12,118 to 119,O=C(O)CCc1cn(Cc2ccc(OCc3ccsc3)cc2)cc1-c1ccccc1
13,118 to 121,COc1ccccc1OC(CCN)c1ccccc1 (centres undefined)
14,118 to 119,COc1ccc(-c2cccc(C(=O)O)c2)c2cc(Cc3cccc(C(F)(F)F)c3)oc12
15,96.8 to 102,CCCCc1nc(C)c(CC(=S)N(C)C)c(=O)n1Cc1ccc(-c2ccccc2-c2nnn[nH]2)cc1
16,80 to 83,CC1(CC(=O)O)CCc2ccc3ccccc3c2C1=O (centres undefined)
17,221 to 222,Cc1ccccc1C(=O)Nc1nc(-c2ccccc2)c(-c2ccc(=O)n(C(C)C)n2)s1

row,melting point [°C],Compound
1,225 to 228,Nc1nc(-c2ccccc2)c(-c2ccc(=O)n(Cc3ccccc3)n2)s1
2,168 to 188,N#Cc1ccc(-c2cn(-c3ccc(C#N)cc3)c(Cc3ccccc3)n2)cc1
3,247,NS(=O)(=O)c1cc(C(=O)O)cc([N+](=O)[O-])c1Oc1ccc(OCc2ccccc2)cc1
4,106,O=C(NO)[C@H](CNS(=O)(=O)c1ccc(OCc2ccc3ccccc3c2)cc1)N1CCCCC1
5,212 to 215,CCC(=O)Oc1ccc2nc(NC(=O)Nc3ccccc3)sc2c1
6,211 to 214,CCOc1ccccc1COc1ccc2c(c1)C=C(C(=O)Nc1ccc(CN(C)C3CCOCC3)cc1)CCS2(=O)=O
7,180,O=C(O)c1cccc(C(=O)c2ccc(F)cc2)c1
8,118 to 120,CCOC(C)n1c(Cl)nc(-c2ccc(OC)cc2)c1-c1ccc(OC)cc1 (centres undefined)
9,128 to 134,C[C@@H](Nc1ncnc2cc(OCCOS(C)(=O)=O)c([N+](=O)[O-])cc12)c1ccccc1
10,128 to 132,Nc1ccc(Cc2ccccn2)cc1[N+](=O)[O-]
11,241 to 242,COc1ccnc(CCc2nc3cc(-c4ccc5[nH]ccc5c4)cnc3[nH]2)c1
12,175,O=C(Nc1ccc2ccc(-c3ccccc3)nc2n1)c1cccc(Br)c1
13,106 to 108,O=Cc1cc(-c2ccccc2F)n(S(=O)(=O)c2cccnc2)c1
14,32 to 35,c1ccc(OCCSCc2ncc(-c3ccc(OCCCN4CCCCCC4)cc3)o2)cc1
15,35 to 38,CCN(CC)CCCCOc1ccc(-c2nnc(CSCCOc3ccccc3)o2)cc1
16,58 to 60,N#Cc1ccc(C(=O)N2C[C@H](OCc3ccccc3)C[C@H]2C(=O)O)cc1
17,320 to 321,COc1ccc2c(c1)C(=NO)c1c-2c(O)nc2ccccc12
